Reference: patent publication US6610653B1, “Therapeutic preparation for inhalation” (priority 1994, dated 2003)

Key:
[1] = Selection of enhancers: inhaled insulin/enhancer powder in rat model, blood glucose levels; type: in vivo; settings: for Effect (decrease in blood glucose level): rat, inhalation; for usefulness as enhancer of insulin absorption in the lung: tested as enhancer in the method of the invention, rat model; for Effect (decrease in blood glucose level): key: +: significant decrease in blood glucose level; (+): moderate decrease in blood glucose level; −: no or very small decrease in blood glucose level
Procedure: Each of the compounds listed in Table III was tested for its ability to enhance uptake of insulin, and thus affect blood glucose levels, in a rat model. Various forms of insulin were employed: recombinant or semisynthetic human or bovine. […] The powder was administered to rats by inhalation, and the blood glucose levels of the rats were subsequently monitored. These levels were compared to the corresponding values obtained from rats which had inhaled insulin formulations without enhancer.

[2] = system: CaCo-2 cell monolayer; assay: In vitro CaCo-2 epithelial cell monolayer transport assay; type: in vitro ADME
Source text: A standard in vitro assay utilizing an epithelial cell line, CaCo-2 (available through the American Type Culture Collection (ATCC), Rockville, Md., USA), has been developed to assess the ability of various enhancer compounds to promote transport of insulin and other markers across an epithelial cell monolayer, as a model for the epithelial cell layer which functions in the lung to separate the alveolus from the pulmonary blood supply. In this assay, the enhancer and insulin or other marker are dissolved in aqueous solution at various proportions and/or concentrations, and applied to the apical side of the cell monolayer. After 60 min incubation at 37° C. and 95% RH (relative humidity), the amount of the marker on the basolateral side of the cells is determined: for example, by use of a radioactively labelled marker. […] This concentration of sodium caprate (16 mM) was also found to promote absorption of insulin across the cell monolayer. The amount of insulin which passed across the monolayer doubled in the presence of 16 mM sodium caprate, compared to the amount in the absence of any enhancer. It is expected that at higher concentrations of sodium caprate, the permeability of the cells will be further increased; however, the potential cytotoxicity of sodium caprate may prevent the use of substantially higher concentrations of this particular enhancer.

[3] = Insulin combined with sodium caprate in various w/w proportions, in vivo models
Source text: In general, it is desirable to keep the ratio of insulin to enhancer as high as possible, within the range that permits fast and efficient enhancement of insulin absorption. This is important in order to minimize the risk of adverse effects, both local and systemic, attributable to the enhancer. The optimal ratio of insulin to enhancer can be ascertained for any given enhancer by testing various proportions in in vivo models such as described herein. For example, insulin was combined with sodium caprate in the following w/w proportions: 50/50, 75/25, 82.5/17.5, and 90/10. […] Other enhancers may have higher or lower optimal concentrations relative to insulin, and each individual enhancer must therefore be separately tested.

[4] = Enhancer:Insulin:lactose 2:4:94
[5] = Enhancer:Insulin:lactose 4:4:92
[6] = Enhancer:Insulin:lactose 25:75:0

## CCCCCCCCCC(=O)OC[C@H](COP(=O)([O-])OCC[N+](C)(C)C)OC(=O)CCCCCCCCC [Didecanoylphospatidylcholine]
[1]; Enhancer:Insulin:lactose 4:4:94
  Effect (decrease in blood glucose level): −

## CCCCCCCC(=O)OCC(COP(=O)([O-])OCC[N+](C)(C)C)OC(=O)CCCCCCC (stereo not shown) [Dioctanoylphosphatidylcholine]
[1]; [4]
  Effect (decrease in blood glucose level): (+)

## CCCCCCCCOC1O[C@H](CO)[C@@H](O)[C@H](O)[C@H]1O (stereo partly shown) [Octylglucopyranoside]
[1]; [5]
  Effect (decrease in blood glucose level): (+)
[1]
  usefulness as enhancer of insulin absorption in the lung: some absorption enhancing properties

## CCCCCCCCCC(=O)[O-].[K+] [Potassium caprate]
[1]; Enhancer:Insulin:lactose 27:73:0
  Effect (decrease in blood glucose level): +
[1]
  usefulness as enhancer of insulin absorption in the lung: effective

## CCCCCCCC/C=C\CCCCCCCC(=O)[O-].[K+] [Potassium oleate]
[1]; [5]
  Effect (decrease in blood glucose level): +

## CCCCCCCCCC(=O)[O-].[Na+] [Sodium caprate]
[1]; [5]
  Effect (decrease in blood glucose level): +
[1]; Enhancer:Insulin:lactose 10:90:0
  Effect (decrease in blood glucose level): (+)
[1]; Enhancer:Insulin:lactose 17.5:82.5:0
  Effect (decrease in blood glucose level): (+)
[1]; [6]
  Effect (decrease in blood glucose level): +
[1]
  usefulness as enhancer of insulin absorption in the lung: perform well
[2]; 16 mM sodium caprate
  amount of insulin which passed across the monolayer, compared to absence of any enhancer: doubled
[2]; 60 min at 37° C., 1:3 sodium caprate:insulin by weight, FIG. 8
  amount of marker (mannitol) which appears on the basolateral side, insulin added: true even when insulin is added
[2]; 60 min at 37° C., up to 16 mM sodium caprate, FIG. 7
  amount of marker (mannitol) which appears on the basolateral side: dependent upon the concentration of enhancer used
[3]; insulin/sodium caprate w/w 50/50 (50% sodium caprate)
  improvement in absorption of insulin: Significant improvement
[3]; insulin/sodium caprate w/w 75/25 (25% sodium caprate)
  improvement in absorption of insulin: Significant improvement
[3]; insulin/sodium caprate w/w 82.5/17.5 (17.5% sodium caprate)
  improvement in absorption of insulin: intermediate
[3]; insulin/sodium caprate w/w 90/10 (10% sodium caprate)
  improvement in absorption of insulin: poor improvement
[3]; proportion of enhancer relative solely to insulin, 'probably 20-25%'
  lowest effective concentration of sodium caprate: 15-25%

## CCCCCCCC(=O)[O-].[Na+] [Sodium caprylate]
[1]; [6]
  Effect (decrease in blood glucose level): +

## C[C@H](CCC(=O)NCC(=O)[O-])[C@H]1CC[C@H]2[C@@H]3[C@H](O)C[C@@H]4C[C@H](O)CC[C@]4(C)[C@H]3C[C@H](O)[C@]12C.[Na+] [Sodium glycocholate]
[1]; [5]
  Effect (decrease in blood glucose level): +
[1]
  usefulness as enhancer of insulin absorption in the lung: effectively enhance insulin absorption in the lung

## CCCCCCCCCCCC(=O)[O-].[Na+] [Sodium laurate]
[1]; [6]
  Effect (decrease in blood glucose level): (+)
[1]
  usefulness as enhancer of insulin absorption in the lung: perform well

## CCCCCCCCCCCCCC(=O)[O-].[Na+] [Sodium myristate]
[1]; Enhancer:Insulin:lactose 30:70:0
  Effect (decrease in blood glucose level): +
[1]
  usefulness as enhancer of insulin absorption in the lung: perform well

## C[C@H](CCC(=O)NCCS(=O)(=O)O)[C@H]1CC[C@H]2[C@@H]3[C@H](O)C[C@@H]4C[C@H](O)CC[C@]4(C)[C@H]3C[C@H](O)[C@]12C [Sodium taurocholate]
[1]; [5]
  Effect (decrease in blood glucose level): +
[1]
  usefulness as enhancer of insulin absorption in the lung: effectively enhance insulin absorption in the lung

## CC(=O)OC1CC2(C)C(CC(O)C3C4(C)CCC(O)C(C)C4CCC32C)C1=C(CCCC(C)C)C(=O)NCCS(=O)(=O)O (stereo not shown) [Sodium taurodihydrofusidate]
[1]; [4]
  Effect (decrease in blood glucose level): +
[1]
  usefulness as enhancer of insulin absorption in the lung: effectively enhance insulin absorption in the lung

## C[C@H](CCC(=O)[O-])[C@H]1CC[C@H]2[C@@H]3[C@@H](O)C[C@@H]4C[C@H](O)CC[C@]4(C)[C@H]3CC[C@]12C.[Na+] [Sodium ursodeoxycholate]
[1]; [5]
  Effect (decrease in blood glucose level): +
[1]
  usefulness as enhancer of insulin absorption in the lung: effectively enhance insulin absorption in the lung

## Dimethyl-β-cyclodextrin
[1]; Enhancer:Insulin:lactose 75:25:0
  Effect (decrease in blood glucose level): +
[1]
  usefulness as enhancer of insulin absorption in the lung: absorption enhancing effect

## Lysine caprate
[1]; Enhancer:Insulin:lactose 35:65:0
  Effect (decrease in blood glucose level): +
[1]
  usefulness as enhancer of insulin absorption in the lung: effective

## Lysophosphatidylcholine
[1]; [5]
  Effect (decrease in blood glucose level): +
[1]
  usefulness as enhancer of insulin absorption in the lung: effective enhancer

## sodium salt of ethylenediaminetetraacetic acid
[1]
  usefulness as enhancer of insulin absorption in the lung: ineffective
